Assays:
[1] = tested on: TNF-α production by LPS-activated RAW 264.7 macrophages; experiment: TNF-α production by LPS-stimulated RAW 264.7 macrophages (L929 fibroblast bioassay); format: cell-based, murine; conditions: Mus musculus, RAW264.7, 24 h incubation
Protocol: (§1) The murine peritoneal macrophage cell line RAW 264.7 was obtained from the American Type Culture Collection (ATCC, Rockville, MD, USA) and grown at 37 °C and 5% CO2 in DMEM F-12 that was supplemented with 10% FCS and gentamicin (50 µg/mL). RAW 264.7 cells (1 × 10^5 cells/well) were seeded in flat bottom 96-well tissue culture plates (Corning Inc., Corning, NY, USA) in the presence or absence of various concentrations of the samples (100, 20 and 4 µg/mL) and/or LPS (Escherichia coli 055:B5; Sigma-Aldrich). After a 24 h incubation period, culture supernatants were collected for NO and TNF-α assays. Nitrite, a stable NO metabolite, was determined by using the Griess test. As a positive control of inhibitory activity, intact, untreated macrophages were used. As a negative control, macrophages stimulated with 1 µg/mL LPS were used. […] TNF-α was measured by an L929 fibroblast bioassay. This assay system uses murine L929 cells sensitive to TNF-α. For this, murine fibroblast cell line L929 cells (ATCC) (2 × 10^5 cells/well) were seeded in flat bottom 96-well tissue culture plates (Corning Inc.) 24 h before of being inoculated with macrophage culture supernatant and actinomycin D (2 µg/mL) added. After 24 h of incubation with macrophage culture supernatant, L929 viability was assayed by MTT [3-(4,5-dimethylthiazol-2-yl)-2,5diphenyltetrazolium bromide] method. The cytokine levels were calculated by using a purified recombinant mouse cytokine to obtain a standard curve that correlates cellular viability and TNF-α concentration.

RAW 264.7 cells = experiment: Lactate dehydrogenase (LDH) cytotoxicity assay; format: cell-based, murine; conditions: for toxicity (LDH release), in words: RAW 264.7 cells, cell viability by LDH release
Protocol: (§2) LDH assay was used to evaluate the toxicity of the studied samples towards macrophage cultures. The release of LDH (cytoplasmic enzyme lactate dehydrogenase) from RAW 264.7 cells treated with samples was determined using 50 µL of cell culture supernatant collected 24 h after the treatment, as described in the previous section. The LDH release, which represents an indirect indication of cytotoxicity, was determined colorimetrically using a commercial kit (Doles Reagentes e Equipamentos para Laboratorios Ltda., Goiânia, Brazil). The specific release was calculated as a percentage of the controls: non-treated macrophages as the negative control (O.D. 0.249, cytotoxicity 1.99% ± 0.62%) and 1% Triton X-100 (Vetec Chem., Duque de Caxias, Brazil) detergent treated macrophages as the positive control (O.D. 1.278, cytotoxicity 99.95% ± 2.26%). Final concentrations of DMSO, used as the carrier solvent for the samples, were tested in parallel as a control. Cytotoxicity was shown as percentage of controls. Tests were performed in triplicate and the mean value and standard deviation were calculated.

[2] = Lactate dehydrogenase (LDH) cytotoxicity assay; format: cell-based, murine; conditions: mouse, RAW 264.7 macrophage cells; LDH release from RAW 264.7 cells, 24 h after treatment
Protocol: as §2

[3] = tested on: Mycobacterium bovis BCG strain Moreau; experiment: microbe, parasite or virus in culture; format: cell-based; conditions: Mycobacterium tuberculosis variant bovis BCG, 168 h, read-out: IC50 M. bovis BCG
[4] = tested on: NO production by LPS-activated RAW 264.7 macrophages; experiment: NO production by LPS-stimulated RAW 264.7 macrophages (Griess test); format: cell-based, murine; conditions: Mus musculus, RAW264.7; for IC50: LPS-stimulated RAW 264.7 macrophages, 24 h incubation
Protocol: as §1

Compound | IC50 [1] [µM] | toxicity (LDH release), in words (RAW 264.7 cells) | IC50 at 24 h [2] [µM] | IC50 [3] [µM] | IC50 [4] [µM] | inhibition at 20 µg/mL ([4]; positive control at 20 µg/mL) [%] | cytotoxicity (specific LDH release, percentage of controls) (RAW 264.7 cells; 1% detergent, positive control, RAW 264.7 macrophages)
C=C1CC(O)C(Br)C(C)(C)C12CCC(C)(O)C(Cl)C2 (centres unmarked) [Compound 2] | > 284 | no toxicity whatsoever | > 284 | 80.2 ± 4.3 | > 284 |  | 
C=C1C[C@@H](O)CC(C)(C)[C@]12CCC(C)=C(Cl)C2 [Compound 3, Debromoelatol] | 134 ± 7.4 | no toxicity whatsoever | > 392 | 82.4 ± 4.7 | 69.1 ± 4.7 |  | 
C=C1CC[C@@H](Br)C(C)(C)[C@]12CC[C@](C)(Br)[C@@H](Cl)C2 [Compound 4, obtusane] | > 251 | only moderately toxic | 197.2 ± 1 | 44.7 ± 4 | 44.9 ± 3 |  | 
CC1CCC23C1CCC2(C)CC(C)C3(C)O (stereo not drawn) [Compound 5, (1S*,2S*,3S*,5S*,8S*,9S*)-2,3,5,9-tetramethyltricyclo[6.3.0.01.5]undecan-2-ol] | 393.4 ± 0.4 | no toxicity whatsoever | 416 ± 4.9 | 205 ± 7.6 | 74.6 ± 5.8 |  | 
[H]/N=C(/NC)NCCC[C@H](N)C(=O)O [L-NMMA, L-N-monomethyl-arginine, reference compound] |  |  |  |  | 71.3 ± 4.4 | 59.2 | 
Triton X-100 [reference compound] |  |  |  |  |  |  | 99.95% ± 2.26

— paper PMC6271906, “Sesquiterpenes from the Brazilian Red Alga Laurencia dendroidea J. Agardh” (Molecules, 2014)
